Laboratory results: ChEMBL document CHEMBL1201861, “Genomics of Drug Sensitity in Cancer screening data, Wellcome Trust Sanger Institute”

What was measured:
Assay in all cases: cells
Ca9-22 = assay type: functional, cell-based, Homo sapiens; conditions: Homo sapiens, Ca9-22;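 also: growth inhibition of Ca9-22 cells, read out with a cell viability assay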
Description: SANGER: Inhibition of human Ca9-22 cell growth in a cell viability assay.

D283 Med = assay type: functional, cell-based, Homo sapiens; conditions: Homo sapiens, D283 Med
Description: SANGER: Inhibition of human D-283MED cell growth in a cell viability assay.

EGI-1 = assay type: functional, cell-based, Homo sapiens; conditions: Homo sapiens, EGI-1;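 also: cell viability readout used to gauge growth inhibition of EGI-1 cells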
Description: SANGER: Inhibition of human EGI-1 cell growth in a cell viability assay.

EW-16 = assay type: functional, cell-based, Homo sapiens; conditions: Homo sapiens, EW-16;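 also: growth inhibition of human EW-16 cells, read out as cell viability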
Description: SANGER: Inhibition of human EW-16 cell growth in a cell viability assay.

GAMG = assay type: functional, cell-based, Homo sapiens; conditions: Homo sapiens, GAMG;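 also: cell growth inhibition measured by a viability assay in the GAMG human cell line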
Description: SANGER: Inhibition of human GAMG cell growth in a cell viability assay.

GI-ME-N = assay type: functional, cell-based, Homo sapiens; conditions: Homo sapiens, GI-ME-N;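 also: growth inhibition of human GI-ME-N cells, read out with a cell viability assay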
Description: SANGER: Inhibition of human GI-ME-N cell growth in a cell viability assay.

GP5d = assay type: functional, cell-based, Homo sapiens; conditions: Homo sapiens, GP5d;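 also: growth inhibition of human GP5d cells, read out with a cell viability assay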
Description: SANGER: Inhibition of human GP5d cell growth in a cell viability assay.

HAL-01 = assay type: functional, cell-based; conditions: Homo sapiens;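 also: growth inhibition of human HAL-01 cells, read out with a cell viability assay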
Description: SANGER: Inhibition of human HAL-01 cell growth in a cell viability assay.

HT-1080 = assay type: functional, cell-based, Homo sapiens; conditions: Homo sapiens, HT-1080
Description: SANGER: Inhibition of human HT-1080 cell growth in a cell viability assay.

IST-MES1 = assay type: functional, cell-based, Homo sapiens; conditions: Homo sapiens, IST-MES1;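 also: growth inhibition of IST-MES1 cells, measured with a cell viability assay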
Description: SANGER: Inhibition of human IST-MES1 cell growth in a cell viability assay.

KG-1 = assay type: functional, cell-based; conditions: Homo sapiens;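 also: growth inhibition of KG-1 cells, read out by a cell viability assay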
Description: SANGER: Inhibition of human KG-1 cell growth in a cell viability assay.

KP-N-YN = assay type: functional, cell-based; conditions: Homo sapiens;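 also: growth inhibition of KP-N-YN cells, read out with a cell viability assay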
Description: SANGER: Inhibition of human KP-N-YN cell growth in a cell viability assay.

KURAMOCHI = assay type: functional, cell-based; conditions: Homo sapiens;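 also: growth inhibition of KURAMOCHI cells, read out with a cell viability assay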
Description: SANGER: Inhibition of human KURAMOCHI cell growth in a cell viability assay.

LAN-6 = assay type: functional, cell-based, Homo sapiens; conditions: Homo sapiens, LAN-6;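 also: growth inhibition of LAN-6 cells, determined with a cell viability assay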
Description: SANGER: Inhibition of human LAN-6 cell growth in a cell viability assay.

LB2518-MEL = assay type: functional, cell-based, Homo sapiens; conditions: Homo sapiens, LB2518-MEL;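 also: growth inhibition of human LB2518-MEL cells, measured with a cell viability assay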
Description: SANGER: Inhibition of human LB2518-MEL cell growth in a cell viability assay.

LB771-HNC = assay type: functional, cell-based, Homo sapiens; conditions: Homo sapiens, LB771-HNC;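 also: growth inhibition of LB771-HNC human cells, read out with a cell viability assay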
Description: SANGER: Inhibition of human LB771-HNC cell growth in a cell viability assay.

LK-2 = assay type: functional, cell-based, Homo sapiens; conditions: Homo sapiens, LK-2;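 also: growth inhibition of LK-2 cells, read out with a viability assay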
Description: SANGER: Inhibition of human LK-2 cell growth in a cell viability assay.

MKN-7 = assay type: functional, cell-based, Homo sapiens; conditions: Homo sapiens, MKN-7;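 also: growth inhibition of MKN-7 cells, read out with a cell viability assay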
Description: SANGER: Inhibition of human MKN7 cell growth in a cell viability assay.

NB14 = assay type: functional, cell-based; conditions: Homo sapiens;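 also: growth inhibition of NB14 cells measured with a cell viability assay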
Description: SANGER: Inhibition of human NB14 cell growth in a cell viability assay.

NCI-H1155 = assay type: functional, cell-based; conditions: Homo sapiens;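 also: cell growth inhibition measured by a viability assay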
Description: SANGER: Inhibition of human NCI-H1155 cell growth in a cell viability assay.

NCI-H1581 = assay type: functional, cell-based, Homo sapiens; conditions: Homo sapiens, NCI-H1581;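 also: cell growth inhibition read out by a viability assay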
Description: SANGER: Inhibition of human NCI-H1581 cell growth in a cell viability assay.

NCI-H1693 = assay type: functional, cell-based, Homo sapiens; conditions: Homo sapiens, NCI-H1693;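 also: growth inhibition of the human cell line, read out with a cell viability assay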
Description: SANGER: Inhibition of human NCI-H1693 cell growth in a cell viability assay.

NCI-H1793 = assay type: functional, cell-based, Homo sapiens; conditions: Homo sapiens, NCI-H1793;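 also: cell growth inhibition, read out by a cell viability assay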
Description: SANGER: Inhibition of human NCI-H1793 cell growth in a cell viability assay.

NCI-H209 = assay type: functional, cell-based; conditions: Homo sapiens;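 also: growth inhibition of human NCI-H209 cells, measured by a cell viability assay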
Description: SANGER: Inhibition of human NCI-H209 cell growth in a cell viability assay.

NCI-H28 = assay type: functional, cell-based, Homo sapiens; conditions: Homo sapiens, NCI-H28;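 also: growth inhibition of human NCI-H28 cells, read out as cell viability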
Description: SANGER: Inhibition of human NCI-H28 cell growth in a cell viability assay.

NCI-H358 = assay type: functional, cell-based, Homo sapiens; conditions: Homo sapiens, NCI-H358;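 also: growth inhibition of NCI-H358 human cells, read out with a cell viability assay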
Description: SANGER: Inhibition of human NCI-H358 cell growth in a cell viability assay.

NCI-H720 = assay type: functional, cell-based; conditions: Homo sapiens;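 also: growth inhibition of human NCI-H720 cells determined by a cell viability assay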
Description: SANGER: Inhibition of human NCI-H720 cell growth in a cell viability assay.

NKM-1 = assay type: functional, cell-based; conditions: Homo sapiens;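 also: growth inhibition of NKM-1 cells, read out with a cell viability assay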
Description: SANGER: Inhibition of human NKM-1 cell growth in a cell viability assay.

ONS-76 = assay type: functional, cell-based, Homo sapiens; conditions: Homo sapiens, ONS-76;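 also: growth inhibition of human ONS-76 cells, read out with a cell viability assay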
Description: SANGER: Inhibition of human ONS-76 cell growth in a cell viability assay.

Panc1005 = assay type: functional, cell-based, Homo sapiens; conditions: Homo sapiens, Panc1005;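 also: growth inhibition of human PANC-10-05 cells, measured by a cell viability assay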
Description: SANGER: Inhibition of human PANC-10-05 cell growth in a cell viability assay.

RT-112 = assay type: functional, cell-based, Homo sapiens; conditions: Homo sapiens, RT-112
Description: SANGER: Inhibition of human RT-112 cell growth in a cell viability assay.

SCC-25 = assay type: functional, cell-based, Homo sapiens; conditions: Homo sapiens, SCC-25;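 also: growth inhibition of SCC-25 cells, measured with a cell viability assay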
Description: SANGER: Inhibition of human SCC-25 cell growth in a cell viability assay.

SJSA-1 = assay type: functional, cell-based, Homo sapiens; conditions: Homo sapiens, SJSA-1;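 also: growth inhibition of human SJSA-1 cells, read out through a cell viability measurement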
Description: SANGER: Inhibition of human SJSA-1 cell growth in a cell viability assay.

SK-MES-1 = assay type: functional, cell-based, Homo sapiens; conditions: Homo sapiens, SK-MES-1;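 also: growth inhibition of human SK-MES-1 cells, read out with a cell viability assay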
Description: SANGER: Inhibition of human SK-MES-1 cell growth in a cell viability assay.

SK-OV-3 = assay type: functional, cell-based, Homo sapiens; conditions: Homo sapiens, SK-OV-3;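 also: growth inhibition of SK-OV-3 human cells, read out with a cell viability assay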
Description: SANGER: Inhibition of human SK-OV-3 cell growth in a cell viability assay.

SNU-449 = assay type: functional, cell-based, Homo sapiens; conditions: Homo sapiens, SNU-449
Description: SANGER: Inhibition of human SNU-449 cell growth in a cell viability assay.

SNU-C2B = assay type: functional, cell-based, Homo sapiens; conditions: Homo sapiens, SNU-C2B;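 also: cell viability readout used to measure compound-driven suppression of SNU-C2B cell proliferation, IC50 marking half-maximal growth inhibition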
Description: SANGER: Inhibition of human SNU-C2B cell growth in a cell viability assay.

SW1573 = assay type: functional, cell-based, Homo sapiens; conditions: Homo sapiens, SW1573;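 also: growth inhibition of SW1573 cells, read out with a cell viability assay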
Description: SANGER: Inhibition of human SW1573 cell growth in a cell viability assay.

647-V = assay type: functional, cell-based, Homo sapiens; conditions: Homo sapiens, 647-V;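 also: growth inhibition of 647-V cells, read out with a cell viability assay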
Description: SANGER: Inhibition of human 647-V cell growth in a cell viability assay.

8-MG-BA = assay type: functional, cell-based, Homo sapiens; conditions: Homo sapiens, 8-MG-BA;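 also: growth inhibition of 8-MG-BA cells, read out with a cell viability assay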
Description: SANGER: Inhibition of human 8-MG-BA cell growth in a cell viability assay.

8505C = assay type: functional, cell-based, Homo sapiens; conditions: Homo sapiens, 8505C
Description: SANGER: Inhibition of human 8505C cell growth in a cell viability assay.

A253 cell line = assay type: functional, cell-based, Homo sapiens; conditions: Homo sapiens, A253;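 also: growth inhibition of A253 cells, read out with a cell viability assay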
Description: SANGER: Inhibition of human A253 cell growth in a cell viability assay.

A2780 = assay type: functional, cell-based, Homo sapiens; conditions: Homo sapiens, A2780;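 also: growth inhibition of A2780 cells, read out with a cell viability assay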
Description: SANGER: Inhibition of human A2780 cell growth in a cell viability assay.

A4-Fuk = assay type: functional, cell-based; conditions: Homo sapiens;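 also: growth inhibition of A4-Fuk cells, read out by a cell viability assay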
Description: SANGER: Inhibition of human A4-Fuk cell growth in a cell viability assay.

AGS = assay type: functional, cell-based, Homo sapiens; conditions: Homo sapiens, AGS;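 also: growth inhibition of AGS cells, determined with a cell viability assay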
Description: SANGER: Inhibition of human AGS cell growth in a cell viability assay.

BCPAP = assay type: functional, cell-based, Homo sapiens; conditions: Homo sapiens, BCPAP;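 also: growth inhibition of BCPAP cells, read out in a cell viability assay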
Description: SANGER: Inhibition of human BCPAP cell growth in a cell viability assay.

BE-13 = assay type: functional, cell-based; conditions: Homo sapiens;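 also: growth inhibition of human BE-13 cells, measured with a cell viability assay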
Description: SANGER: Inhibition of human BE-13 cell growth in a cell viability assay.

TGBC1TKB = assay type: functional, cell-based, Homo sapiens; conditions: Homo sapiens, TGBC1TKB;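 also: growth inhibition of TGBC1TKB cells, read out by a cell viability assay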
Description: SANGER: Inhibition of human TGBC1TKB cell growth in a cell viability assay.

UMC-11 = assay type: functional, cell-based, Homo sapiens; conditions: Homo sapiens, UMC-11;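 also: growth inhibition of UMC-11 cells, read out with a cell viability assay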
Description: SANGER: Inhibition of human UMC-11 cell growth in a cell viability assay.

CHP-212 = assay type: functional, cell-based, Homo sapiens; conditions: Homo sapiens, CHP-212
Description: SANGER: Inhibition of human CHP-212 cell growth in a cell viability assay.

COc1cc(F)c(F)c(Nc2ccc(I)cc2F)c1NS(=O)(=O)C1(CC(O)CO)CC1 (stereo not given)
IC50 (Ca9-22): 981 nM | IC50 (D283 Med): > 5000 nM | IC50 (EGI-1): 1310 nM | IC50 (EW-16): > 5000 nM | IC50 (GAMG): > 5000 nM | IC50 (GI-ME-N): 1580 nM | IC50 (GP5d): > 5000 nM | IC50 (HAL-01): > 5000 nM | IC50 (HT-1080): 538 nM | IC50 (IST-MES1): > 5000 nM | IC50 (KG-1): > 5000 nM | IC50 (KP-N-YN): > 5000 nM | IC50 (KURAMOCHI): > 5000 nM | IC50 (LAN-6): 521 nM | IC50 (LB2518-MEL): 77.5 nM | IC50 (LB771-HNC): > 5000 nM | IC50 (LK-2): > 5000 nM | IC50 (MKN-7): > 5000 nM | IC50 (NB14): > 5000 nM | IC50 (NCI-H1155): > 5000 nM | IC50 (NCI-H1581): > 5000 nM | IC50 (NCI-H1693): > 5000 nM | IC50 (NCI-H1793): > 5000 nM | IC50 (NCI-H209): > 5000 nM | IC50 (NCI-H28): > 5000 nM | IC50 (NCI-H358): > 5000 nM | IC50 (NCI-H720): > 5000 nM | IC50 (NKM-1): 2430 nM | IC50 (ONS-76): 500 nM | IC50 (Panc1005): > 5000 nM | IC50 (RT-112): 1590 nM | IC50 (SCC-25): 490 nM | IC50 (SJSA-1): 158 nM | IC50 (SK-MES-1): 1350 nM | IC50 (SK-OV-3): > 5000 nM | IC50 (SNU-449): 3850 nM | IC50 (SNU-C2B): > 5000 nM | IC50 (SW1573): > 5000 nM | IC50 (647-V): > 5000 nM | IC50 (8-MG-BA): > 5000 nM | IC50 (8505C): 2580 nM | IC50 (A253 cell line): 3320 nM | IC50 (A2780): > 5000 nM | IC50 (A4-Fuk): 1850 nM | IC50 (AGS): 240 nM | IC50 (BCPAP): 2180 nM | IC50 (BE-13): > 5000 nM | IC50 (TGBC1TKB): > 5000 nM | IC50 (UMC-11): > 5000 nM | IC50 (CHP-212): 4.92 nM

O=C1N=C(NCc2cccs2)S/C1=C\c1ccc2ncccc2c1
IC50 (Ca9-22): > 5000 nM | IC50 (D283 Med): > 5000 nM | IC50 (EGI-1): > 5000 nM | IC50 (EW-16): > 5000 nM | IC50 (GAMG): > 5000 nM | IC50 (GI-ME-N): > 5000 nM | IC50 (GP5d): > 5000 nM | IC50 (HAL-01): > 5000 nM | IC50 (HT-1080): > 5000 nM | IC50 (IST-MES1): > 5000 nM | IC50 (KG-1): > 5000 nM | IC50 (KP-N-YN): > 5000 nM | IC50 (KURAMOCHI): > 5000 nM | IC50 (LAN-6): > 5000 nM | IC50 (LB2518-MEL): > 5000 nM | IC50 (LB771-HNC): > 5000 nM | IC50 (LK-2): > 5000 nM | IC50 (MKN-7): > 5000 nM | IC50 (NB14): > 5000 nM | IC50 (NCI-H1155): > 5000 nM | IC50 (NCI-H1581): > 5000 nM | IC50 (NCI-H1693): > 5000 nM | IC50 (NCI-H1793): > 5000 nM | IC50 (NCI-H209): > 5000 nM | IC50 (NCI-H28): > 5000 nM | IC50 (NCI-H358): > 5000 nM | IC50 (NCI-H720): > 5000 nM | IC50 (NKM-1): > 5000 nM | IC50 (ONS-76): > 5000 nM | IC50 (Panc1005): > 5000 nM | IC50 (RT-112): > 5000 nM | IC50 (SCC-25): > 5000 nM | IC50 (SJSA-1): > 5000 nM | IC50 (SK-MES-1): > 5000 nM | IC50 (SK-OV-3): > 5000 nM | IC50 (SNU-449): > 5000 nM | IC50 (SNU-C2B): > 5000 nM | IC50 (SW1573): > 5000 nM | IC50 (647-V): > 5000 nM | IC50 (8-MG-BA): 3140 nM | IC50 (8505C): > 5000 nM | IC50 (A253 cell line): > 5000 nM | IC50 (A2780): > 5000 nM | IC50 (A4-Fuk): 2060 nM | IC50 (AGS): > 5000 nM | IC50 (BCPAP): > 5000 nM | IC50 (BE-13): > 5000 nM | IC50 (TGBC1TKB): > 5000 nM | IC50 (UMC-11): > 5000 nM | IC50 (CHP-212): > 5000 nM

COc1ccc(-c2ccc3c(N4CCOC[C@@H]4C)nc(N4CCOC[C@@H]4C)nc3n2)cc1CO [AZD-8055]
IC50 (Ca9-22): 787 nM | IC50 (D283 Med): 147 nM | IC50 (EGI-1): 135 nM | IC50 (EW-16): 1440 nM | IC50 (GAMG): 557 nM | IC50 (GI-ME-N): 1030 nM | IC50 (GP5d): > 2000 nM | IC50 (HAL-01): 203 nM | IC50 (HT-1080): 525 nM | IC50 (IST-MES1): > 2000 nM | IC50 (KG-1): 569 nM | IC50 (KP-N-YN): > 2000 nM | IC50 (KURAMOCHI): > 2000 nM | IC50 (LAN-6): > 2000 nM | IC50 (LB2518-MEL): > 2000 nM | IC50 (LB771-HNC): > 2000 nM | IC50 (LK-2): 268 nM | IC50 (MKN-7): 1220 nM | IC50 (NB14): 164 nM | IC50 (NCI-H1155): > 2000 nM | IC50 (NCI-H1581): 190 nM | IC50 (NCI-H1693): 1980 nM | IC50 (NCI-H1793): 534 nM | IC50 (NCI-H209): 54.5 nM | IC50 (NCI-H28): 587 nM | IC50 (NCI-H358): > 2000 nM | IC50 (NCI-H720): 29.4 nM | IC50 (NKM-1): 200 nM | IC50 (ONS-76): > 2000 nM | IC50 (Panc1005): > 2000 nM | IC50 (RT-112): 849 nM | IC50 (SCC-25): 1580 nM | IC50 (SJSA-1): 446 nM | IC50 (SK-MES-1): 438 nM | IC50 (SK-OV-3): 672 nM | IC50 (SNU-449): 959 nM | IC50 (SNU-C2B): > 2000 nM | IC50 (SW1573): 1600 nM | IC50 (647-V): 1540 nM | IC50 (8-MG-BA): 1980 nM | IC50 (8505C): 1290 nM | IC50 (A253 cell line): > 2000 nM | IC50 (A2780): 1720 nM | IC50 (A4-Fuk): 1200 nM | IC50 (AGS): 1090 nM | IC50 (BCPAP): 588 nM | IC50 (BE-13): 1120 nM | IC50 (TGBC1TKB): 1330 nM | IC50 (UMC-11): > 2000 nM | IC50 (CHP-212): 437 nM
